Results as given in patent US9669009B2, “Rapid disperse dosage form containing levetiracetam” (APRECIA PHARMACEUTICALS COMPANY, priority 2013, dated 2017).
Entries after “also recorded” stand apart in the source; their conditions may differ. Like-named read-outs stand apart in the source and are kept apart here.

How the values were obtained:
[1] = cited from earlier work
[2] = accelerated (60° C.) stress: acidic, alkaline, aqueous, oxidative, thermal or photo; Shah 2012; cited from earlier work
[3] = Oxidative degradation of LEV in 3DP dosage form, HPLC/MS; type: physicochemical; conditions: antioxidant absent, oxidative excipient (povidone or silica with peroxide impurity) present
Procedure: The stability of LEV to oxidative degradation when included in a 3DP dosage form of the invention was determined by exposing finished dosage forms to heat. The formation of degradants was observed and monitored by HPLC/MS as detailed below. […] Povidone and silica, however, are important functional ingredients. Accordingly, the invention provides a stable rapidly dispersible dosage form comprising LEV, oxidative excipient, antioxidant, binder and disintegrant, wherein the matrix comprises 0.1% by wt or less of an oxidative degradant of LEV after storage for six months at 21° C. and 75% RH.
The following procedures were used to analyze three-dimensionally printed solid porous orodispersible matrices and in support of drug-stability studies.
Samples were prepared by transferring approximately 380 mg of sample to a 50-mL volumetric flask with 30 mL of Diluent. The sample was sonicated for 10 minutes then filled to volume with Diluent. A portion was filtered through a 0.22 μm nylon filter, discarding the first 3-5 mL.
Mass spectrophotometry was conducted by directly infusing a sodium formate solution into the mass spectrometer through the lock spray at 100 μL/min using a syringe pump. The sodium formate peak at m/z 158.9646126 was used for accurate mass analysis. The accurate masses were used for elemental composition analysis using the MassLynx software. […]

[4] = Evaluation of antioxidants for LEV stability in raw tablet compositions (Example 6)
Procedure: The following procedures were used to identify the preferred antioxidant(s) suitable stabilizing LEV against oxidative degradation.
A powder blend containing the following ingredients in the amounts indicated was prepared.
A printing fluid containing the following ingredients in the amounts indicated was prepared.
For example, the amount of antioxidant would be “(IIG daily limit)/2” for a 1000 mg tablet administered twice daily. It should be understood that IIG limits are periodically changed by regulatory agencies. Accordingly, the limits specified below should be considered approximations and not as absolute limits to the amount of antioxidant that can be included in a dosage form.
The antioxidant was mixed with 6 mL of printing fluid. That mixture was then mixed with 30 g of powder blend to form a raw tablet composition, each of which was exposed to the following conditions: Condition 1—store composition at 70 C in tightly sealed glass jar; Condition 2—store composition at 50 C in loosely covered glass jar; and Condition 3—store composition at 40 C/75% RH in open glass jar.
The samples were subsequently analyzed by HPLC/MS and the identity of two key degradants was determined by comparison to standards. The key degradants were levetiracetam acid and oxo-levetiracetam.

[5] = antioxidant at half IIG daily limit in raw tablet composition, 70 C sealed, 50 C loosely covered, 40 C/75% RH open

For `CC[C@@H](C(N)=O)N1CCCC1=O` [Levetiracetam, (S)-2-(2-oxopyrrolidin-1-yl)butanamide], the solubility in acetonitrile ([1]; acetonitrile) is listed as 5.7 g/100 mL, the solubility in chloroform ([1]; chloroform) is listed as 65.3 g/100 mL and the solubility in ethanol ([1]; ethanol) is listed as 16.5 g/100 mL. The solubility in methanol ([1]; methanol) was 53.6 g/100 mL, the solubility in n-hexane ([1]; n-hexane) was “practically insoluble” and the solubility in water ([1]; water) was 104.0 g/100 mL. For the same compound, the degradation under stress [2] was “substantial degradation” and the “oxidative degradation of LEV in 3DP dosage form exposed to heat” value [3] was “undergoes oxidative degradation to form oxo-levetiracetam”.
For `O=S([O-])O.[Na+]` [sodium bisulfite, Sodium bisulfite], the “stability against oxidative degradation and color formation” value (“stability” below) [4, 5] was “improved stability against oxidative degradation and against color formation” and the “stability” value ([4]; antioxidant at half IIG daily limit in raw tablet composition, 70 C sealed, 50 C loosely covered, 40 C/75% RH open, listed as Sodium bisulfite) was “best results”.
With `Cc1c(C)c2c(c(C)c1O)CC[C@@](C)(CCC[C@H](C)CCC[C@H](C)CCCC(C)C)O2` [Vitamin E, Alpha-tocopherol] the “stability” value [4] was “improved stability against oxidative degradation and against color formation”.
In the case of `CSCC[C@H](N)C(=O)O` [methionine, Methionine], the “stability” value [4] is reported as “improved stability against oxidative degradation and against color formation”.
For `COc1ccc(O)c(C(C)(C)C)c1` [BHA, Butylated hydroxyanisole], the “stability” value [4, 5] was “improved stability against oxidative degradation and against color formation; also recorded: best results”.
In the case of `O=S([O-])[O-].[Na+].[Na+]` [sodium sulfite, Sodium sulfite], the “stability” value [4, 5] is reported as “improved stability against oxidative degradation and against color formation; also recorded: best results”.
